Read-outs that look alike come from different tables or passages of the source.

From patent EP4692096A1, “MACROCYCLIC COMPOUND, AND PHARMACEUTICAL COMPOSITION AND USE THEREOF” (Prime Gene Therapeutics Co., Ltd., priority 2023, dated 2024) come the findings set out here.

Data set [1] is described as follows: Blood-brain penetration test in rats. In kind it is in vivo, Male SD rats. To be noted: for Kp at 0.5 h / Kp at 5 min / concentration at 0.5 h: male, SD, rat; for Kp at 0.5 h / Kp at 5 min: brain/plasma; for Kp at 5 min: IV 2 mg/kg, 5 min after administration; for concentration at 0.5 h: 0.5 h after oral administration (PO, 10 mg/kg). Here is the method: Male SD rats were divided into groups of three animals each, which were administered the compounds to be tested either by single oral gavage (PO, 10 mg/kg) or by single intravenous injection (IV, 2 mg/kg). Animals were fasted overnight prior to dosing, beginning 10 hours before administration and continuing until 4 hours after dosing. Rats were sacrificed at 0.5 hours after PO administration (or 5 min after IV administration). Blood and brain tissues were collected. The samples were centrifuged at 4000 rpm for 5 min at 4 °C, and plasma was transferred to centrifuge tubes and stored at -80°C until analysis. Plasma samples were processed by protein precipitation extraction, and the extracts were analyzed by LC/MS/MS.

Another data set concerns the target T1, TYK2-JH2 (Homo sapiens, UniProt P29597).
T1 construct: Enzymatic activity(IC50) assay of compounds against TYK2-JH2 and JAK1-JH2
The data set can be described thus: Enzymatic activity (IC50) assay against TYK2-JH2 (fluorescence polarisation, JH2 probe 1). In kind it is binding. The procedure: (§1) Using an Echo liquid handler, 50 nL of the compound to be tested was transferred into a 384-well reaction plate, in duplicate wells for each compound. The plate was subjected to centrifugation at 1000 rpm for 1 min and the final DMSO concentration was 0.5%. Subsequently, 5 µL of TYK2 (or JAK1) was added to the plate, centrifuged at 1000 rpm for 1 min, and incubated at 25 °C for 10 min. Then, 5 µL of JH2 probe 1 was added to the plate, centrifuged at 1000 rpm for 1 min, and incubation at 25 °C for 60 min. FP 520/48 signals were measured using a BMG high-throughput multifunctional plate reader. Data from the TYK2-JH2 assay were analyzed using GraphPad Prism 8 software. […] After calculating inhibition rates, IC50 values (half-maximal inhibitory concentrations) of the control compounds and the compounds to be tested were determined using nonlinear regression fitting of software. [formula] • Datapositive control: mean value of positive control wells • Datanegative control: mean value of negative control wells

The next data set deals with T2, JAK1-JH2 (Homo sapiens, UniProt P23458).
T2 construct: Enzymatic activity(IC50) assay of compounds against TYK2-JH2 and JAK1-JH2
The data set can be described thus: Enzymatic activity (IC50) assay against JAK1-JH2 (fluorescence polarisation, JH2 probe 1). In kind it is binding. Here is the method:
as §1

The nature of data set [2]: Pharmacokinetic experiment in rats. In kind it is in vivo, Male SD rats. To be noted: for Vd: plasma, iv, 2 mg/kg. The procedure: Male SD rats were divided into groups of three animals each, which were administered the compound of Example 2 by intravenous injection (2 mg/kg), administered the compound of Example 2 by single oral gavage (10 mg/kg), and administered a control compound by single oral gavage (10 mg/kg), respectively. Animals were fasted overnight prior to dosing, beginning 10 hours before administration and continuing until 4 hours after dosing. For the intravenous group, blood samples were collected at 0.0833, 0.25, 0.5, 1, 2, 4, 6, 8, and 24 h post-dose. For the oral administration groups, blood samples were collected at 0.25, 0.5, 1, 2, 4, 6, 8, and 24 h post-dose. Blood samples (0.3 mL) were collected from the retro-orbital venous plexus under isoflurane anesthesia into heparinized tubes. The samples were centrifuged at 4000 rpm for 5 min at 4 °C, and plasma was transferred to centrifuge tubes and stored at -80°C until analysis. Plasma samples were processed by protein precipitation extraction, and the extracts were analyzed by LC/MS/MS. Pharmacokinetic results are shown in Tables 2 and 3: Table 2: Pharmacokinetic parameters of the compound in Example 2 in rat plasma after intravenous administration

Setting [3] is: read-out: brain/blood concentration ratio.
Setting [4] is: male, SD, rat plasma, intravenous injection 2 mg/kg.
The mark [5] stands for this setting: male, SD, rat plasma, single oral gavage 10 mg/kg.

T1 sequence (P29597 589-875 limits assumed): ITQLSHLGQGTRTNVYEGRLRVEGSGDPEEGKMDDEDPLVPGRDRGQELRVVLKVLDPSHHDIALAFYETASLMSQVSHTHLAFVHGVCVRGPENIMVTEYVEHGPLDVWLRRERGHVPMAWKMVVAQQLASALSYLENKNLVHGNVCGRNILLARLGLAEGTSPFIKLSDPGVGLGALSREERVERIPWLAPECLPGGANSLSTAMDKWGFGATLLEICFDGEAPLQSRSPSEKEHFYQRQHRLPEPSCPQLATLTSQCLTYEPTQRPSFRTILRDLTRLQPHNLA
T2 sequence (P23458 583-855 limits assumed): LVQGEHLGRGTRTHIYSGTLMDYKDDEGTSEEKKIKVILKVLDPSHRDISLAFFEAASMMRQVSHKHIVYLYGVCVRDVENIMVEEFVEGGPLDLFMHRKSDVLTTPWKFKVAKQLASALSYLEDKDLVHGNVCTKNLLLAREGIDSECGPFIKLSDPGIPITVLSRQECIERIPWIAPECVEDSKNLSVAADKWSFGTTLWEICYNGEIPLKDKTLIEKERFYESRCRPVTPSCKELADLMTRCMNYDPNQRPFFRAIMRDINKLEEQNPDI

In the case of `[2H]C([2H])([2H])NC(=O)c1nnc(NC(=O)C2CC2)cc1Nc1cccc(-c2ncn(C)n2)c1OC` [Deucravacitinib, reference compound], the “brain penetration (in words)” value in data set [1] is given as “very low brain penetration”. The Kp at 0.5 h in data set [1] (PO 10 mg/kg, 0.5 hours after administration, read-out: brain/blood concentration ratio) stood at 0.032.

In the case of `CNc1cc2nn3c(cnc13)C(=O)O[C@H](C)COCc1ccc(OC)c(c1)N2` [Example 1, (7R,E)-3^6-methoxy-7-methyl-1^8-(methylamino)-5,8-dioxa-2-aza-1(6,3)-imidazo[1,2-b]pyridazin-3(1,3)-benzocyclononan-9-one], in data set [1] (setting [3]), the Kp at 5 min stood at 3.15. Moreover, the IC50 at TYK2-JH2 was below 5 nM; at JAK1-JH2 it was above 5000 nM.

Take `CNc1cc2nc3c(cnn13)C(=O)OC(C)COCc1ccc(OC)c(c1)N2` [Example 2, (R,1^3E,1^4E)-3^6-methoxy-7-methyl-1^7-(methylamino)-5,8-dioxa-2-aza-1(5,3)-pyrazolo[1,5-a]pyrimidin-3(1,3)-benzheterocyclononan-9-one]: the “brain penetration (in words)” value in data set [1] is “remarkably high brain penetration”. Besides, the brain/blood concentration ratio in data set [1] (PO 10 mg/kg, 0.5 hours after administration) is given as 508%. Further, in data set [1] (brain, read-out: concentration in brain tissue), the concentration at 0.5 h is 2620 ng/mL. Further, in data set [1] (10 mg/kg, 0.5 hours post oral dosing, printed as plain ratio, read-out: brain-blood concentration ratio), the Kp at 0.5 h turned out to be 5.08. For the same molecule, in data set [1] (plasma, read-out: concentration in plamsa), the concentration at 0.5 h was found to be 515 ng/mL. This molecule also showed an IC50 at TYK2-JH2 below 5 nM. In addition, the IC50 against JAK1-JH2 was above 5000 nM. For the same molecule, the Vd in data set [2] (male, SD, rat, rat plasma, intravenous injection 2 mg/kg, read-out: Vss) amounted to 1.28 L/kg. Also, in data set [2] (male, SD, rat, rat plasma, intravenous injection 2 mg/kg, read-out: Vz), the Vd was determined as 1.33 L/kg. In data set [2] (setting [4]), this molecule yielded an AUC(0-inf) of 2030 ng·h/mL, an area under the curve AUC(0-t) of 2020 ng·h/mL, a C0 of 2260 ng/mL and an MRT of 1.28 h. In data set [2] (setting [4]), this molecule showed a clearance of 16.7 mL/min/kg and a half-life of 0.93 h. In data set [2] (setting [5]), this molecule registered an AUC(0-inf) of 5780 ng·h/mL, an AUC(0-t) of 5770 ng·h/mL, a Cmax of 2460 ng/mL and an MRT of 1.97 h. In data set [2] (setting [5]), the Tmax was found to be 0.5 h and the half-life was 2.46 h. This molecule also came in with a Bioavialibility in data set [2] (rat, oral 10 mg/kg vs intravenous 2 mg/kg) of 57.1%. The “oral drug exposure (in words)” value in data set [2] (rat, single oral gavage 10 mg/kg) is “much better than that of the control compounds A and B”.

As for `CNc1cc2nn3c(cnc13)C(=O)OC[C@H](C)OCc1ccc(OC)c(c1)N2` [Example 3, (6S, E)-3^6-methoxy-6-methyl-1^8-(methylamino)-5,8-dioxa-2-azazo-1(6,3)-imidazo[1,2-b]pyridazine-3(1,3)-benzheterocyclononan-9-one], the IC50 against TYK2-JH2 was below 20 nM; against JAK1-JH2, above 5000 nM.

As for `CNc1cc2nc3c(cnn13)C(=O)OCC(C)OCc1ccc(OC)c(c1)N2` [Example 4, (S, 1^3E,1^4E)-3^6-methoxy-6-methyl-1^7-(methylamino)-5,8-dioxa-2-azazo-1(5,3)-pyrazolo[1,5-a]pyrimidine-3(1,3)-benzheterocyclononan-9-one], the IC50 against TYK2-JH2 was below 20 nM; on JAK1-JH2, above 5000 nM.

Consider `CNc1cc2nn3c(cnc13)C(=O)O[C@@H]1CCC[C@@H]1OCc1cc(c3nnn(C)c3c1)N2` [Example 5, (6^1R,6^2R,E)-3^1-methyl-1^8-(methylamino)-3^1H-5,7-dioxa-2-azazo-1(6,3)-imidazo[1,2-b]pyridazine-3(4,6)-benzo[d][1,2,3]triazole-6(1,2)-cyclopentane cyclooctafuran-8-one], for which the Kp at 5 min in data set [1] (setting [3]) worked out at 1.21. For the same molecule, the IC50 against TYK2-JH2 was below 5 nM; at JAK1-JH2, above 5000 nM.

As for `CNc1cc2nc3c(cnn13)C(=O)O[C@@H]1CCC[C@H]1OCc1cc(c3nnn(C)c3c1)N2` [Example 6, (1^3E,1^4E,6^1R,6^2R)-3^1-methyl-1^7-(methylamino)-3^1H-5,7-dioxa-2-azazo-1(5,3)-pyrazolo[1,5-a]pyrimidine-3(4,6)-benzo[d][1,2,3]triazole-6(1,2)-cyclopentane cyclooctafuran-8-one], the Kp at 5 min in data set [1] (setting [3]) was determined as 0.322. Besides, the concentration for half-maximal inhibition (IC50) at TYK2-JH2 was below 10 nM.

With `CNc1cc2nn3c(cnc13)C(=O)O[C@H](C)COCc1cc(c(=O)n(C)c1)N2` [Example 7, (1^5E,3^3E,7R)-3^1,7-dimethyl-1^8-(methylamino)-3^1,3^2-dihydro-5,8-dioxa-2-azazo-1(6,3)-imidazo[1,2-b]pyridazine-3(3,5)-pyridine heterocyclononane-3^2,9-dione], the 50% inhibitory concentration (IC50) on TYK2-JH2 is below 5 nM; on JAK1-JH2, above 5000 nM.

Turning to `CNc1cc2nc3c(cnn13)C(=O)O[C@H](C)COCc1cc(c(=O)n(C)c1)N2` [Example 8, (R,1^3E,1^4E,3^3E)-3^1,7-dimethyl-1^7-(methylamino)-3^1,3^2-dihydro-5,8-dioxa-2-azazo-1(5, 3)-pyrazolo[1,5-a]pyrimidine-3 (3,5)-pyridine heterocyclononane-3^2,9-dione], the concentration for half-maximal inhibition (IC50) is below 5 nM against TYK2-JH2 and above 5000 nM against JAK1-JH2.

With `CNc1cc2nn3c(cnc13)C(=O)N[C@@H]1CCC[C@H]1OCc1cc(c3nnn(C)c3c1)N2` [control compound A, reference compound], in data set [1], the “brain penetration (in words)” value was “very low brain penetration”. In data set [1] (setting [3]), the Kp at 5 min came to 0.0879. At TYK2-JH2, the IC50 was below 5 nM. The same molecule came in with an IC50 at JAK1-JH2 above 1000 nM. In data set [2] (setting [5]), this molecule had an AUC(0-inf) of 735 ng·h/mL, an AUC(0-t) of 592 ng·h/mL, a peak concentration (Cmax) of 126 ng/mL and an MRT of 3.16 h. Further, in data set [2] (setting [5]), the Tmax is 1.83 h and the half-life was 3.07 h.

On to `CNc1cc2nc3c(cnn13)C(=O)N[C@H](C)COCc1ccc(OC)c(c1)N2` [control compound B, reference compound], for which, in data set [1] (setting [3]), the Kp at 5 min is 0.228. In data set [2] (setting [5]), this molecule had an area under the curve AUC(0-inf) of 332 ng·h/mL, an exposure AUC(0-t) of 327 ng·h/mL, a maximum concentration (Cmax) of 192 ng/mL and an MRT of 1.63 h. Moreover, in data set [2] (setting [5]), the Tmax stood at 0.5 h and the half-life is 1.08 h.
